Measured values: ChEMBL document CHEMBL5653616, “FRAX597, a small molecule inhibitor of the p21-activated kinases, inhibits tumorigenesis of neurofibromatosis type 2 (NF2)-associated Schwannomas” (J Biol Chem, 2013)
Activity calls are given as the source filed them. The calls are words filed in the database; no cut-off is given here.

Legend:
[1] = target: T1, Serine/threonine-protein kinase PAK 4 (Homo sapiens, UniProt O96013); experiment: Inhibition of PAK4 (unknown origin) by Z-LYTE biochemical assay
Target sequence in this assay (O96013 whole entry, the tested form may be a part): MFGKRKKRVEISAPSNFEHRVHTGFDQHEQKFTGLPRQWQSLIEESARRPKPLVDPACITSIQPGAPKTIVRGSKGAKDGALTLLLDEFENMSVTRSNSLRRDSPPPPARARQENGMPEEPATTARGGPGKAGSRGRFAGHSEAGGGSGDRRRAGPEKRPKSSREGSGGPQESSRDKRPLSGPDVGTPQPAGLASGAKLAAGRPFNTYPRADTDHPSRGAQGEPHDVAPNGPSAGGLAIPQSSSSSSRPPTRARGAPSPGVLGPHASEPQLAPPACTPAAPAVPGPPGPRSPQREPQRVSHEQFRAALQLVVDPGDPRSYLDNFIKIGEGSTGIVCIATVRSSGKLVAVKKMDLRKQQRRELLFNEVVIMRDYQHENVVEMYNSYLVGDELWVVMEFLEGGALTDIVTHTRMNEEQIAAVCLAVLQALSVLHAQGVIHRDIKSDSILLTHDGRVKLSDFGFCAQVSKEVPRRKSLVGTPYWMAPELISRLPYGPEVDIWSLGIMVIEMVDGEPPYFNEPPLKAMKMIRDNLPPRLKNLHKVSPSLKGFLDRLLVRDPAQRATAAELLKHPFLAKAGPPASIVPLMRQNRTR

[2] = target: Serine/threonine-protein kinase PAK 1 (Homo sapiens, UniProt Q13153); experiment: Inhibition of TEV protease fused 6His-tagged PAK1 KD (249 to 545 residues) (unknown origin) expressed in Sf21 cells by Z-LYTE biochemical assay
Sequence of Serine/threonine-protein kinase PAK 1 (Homo sapiens, UniProt Q13153) (Q13153 whole entry, the tested form may be a part): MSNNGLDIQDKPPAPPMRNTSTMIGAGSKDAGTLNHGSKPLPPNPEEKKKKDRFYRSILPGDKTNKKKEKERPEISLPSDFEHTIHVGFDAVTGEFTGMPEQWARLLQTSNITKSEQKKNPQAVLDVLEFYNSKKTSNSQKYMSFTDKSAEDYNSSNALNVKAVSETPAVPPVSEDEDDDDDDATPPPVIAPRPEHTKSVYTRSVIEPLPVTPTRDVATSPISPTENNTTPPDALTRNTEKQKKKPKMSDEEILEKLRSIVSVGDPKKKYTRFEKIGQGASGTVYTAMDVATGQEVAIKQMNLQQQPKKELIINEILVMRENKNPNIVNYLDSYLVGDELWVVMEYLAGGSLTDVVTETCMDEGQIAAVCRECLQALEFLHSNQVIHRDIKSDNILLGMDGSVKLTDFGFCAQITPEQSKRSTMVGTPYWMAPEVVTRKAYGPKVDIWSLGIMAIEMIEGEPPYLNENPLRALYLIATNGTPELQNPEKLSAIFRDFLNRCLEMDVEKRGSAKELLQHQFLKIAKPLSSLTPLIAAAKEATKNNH

SC4 [3] = experiment: Antiproliferative activity against mouse SC4 [Mouse schwannoma] cells assessed as reduction in cell viability at 1 uM measured upto 96 hrs by coulter counter analysis; format: functional, cell-based
[4] = target: Tyrosine-protein kinase Yes (Homo sapiens) (UniProt P07947); details: dose 100.0 nM
Description: Inhibition of YES1 (unknown origin) at 100 nM by Z-LYTE biochemical assay relative to control

[5] = Inhibition of PAK1 V342Y mutant (unknown origin) in presence of ATP by KinaseGlo assay
[6] = target: Serine/threonine-protein kinase PAK 5 (Homo sapiens) (UniProt Q9P286); details: dose 100.0 nM
Sequence of Serine/threonine-protein kinase PAK 5 (Homo sapiens) (Q9P286 whole entry, looked up): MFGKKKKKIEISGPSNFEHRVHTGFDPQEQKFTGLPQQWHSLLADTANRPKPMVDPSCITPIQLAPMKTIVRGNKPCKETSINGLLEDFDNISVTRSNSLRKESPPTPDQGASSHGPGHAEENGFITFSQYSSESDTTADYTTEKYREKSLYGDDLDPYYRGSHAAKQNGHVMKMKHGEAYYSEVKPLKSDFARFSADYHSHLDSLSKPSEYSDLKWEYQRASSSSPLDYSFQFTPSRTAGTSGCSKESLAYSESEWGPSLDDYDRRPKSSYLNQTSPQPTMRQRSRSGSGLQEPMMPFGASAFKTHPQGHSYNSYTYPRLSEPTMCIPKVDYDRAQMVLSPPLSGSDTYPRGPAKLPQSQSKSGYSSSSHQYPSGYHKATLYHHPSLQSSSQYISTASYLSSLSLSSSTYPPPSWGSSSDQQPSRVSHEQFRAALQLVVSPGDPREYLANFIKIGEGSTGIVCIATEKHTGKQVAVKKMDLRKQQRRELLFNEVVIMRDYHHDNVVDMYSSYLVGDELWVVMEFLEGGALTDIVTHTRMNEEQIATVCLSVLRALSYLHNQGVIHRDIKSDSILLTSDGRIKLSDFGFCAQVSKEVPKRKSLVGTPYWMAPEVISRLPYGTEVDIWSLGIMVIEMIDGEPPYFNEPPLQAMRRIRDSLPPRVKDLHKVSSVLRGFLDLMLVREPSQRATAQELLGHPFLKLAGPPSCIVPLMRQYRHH
Description: Inhibition of PAK7 (unknown origin) at 100 nM by Z-LYTE biochemical assay relative to control

[7] = target: Angiopoietin-1 receptor (Homo sapiens) (UniProt Q02763); details: dose 100.0 nM
Sequence of Angiopoietin-1 receptor (Homo sapiens) (Q02763 whole entry): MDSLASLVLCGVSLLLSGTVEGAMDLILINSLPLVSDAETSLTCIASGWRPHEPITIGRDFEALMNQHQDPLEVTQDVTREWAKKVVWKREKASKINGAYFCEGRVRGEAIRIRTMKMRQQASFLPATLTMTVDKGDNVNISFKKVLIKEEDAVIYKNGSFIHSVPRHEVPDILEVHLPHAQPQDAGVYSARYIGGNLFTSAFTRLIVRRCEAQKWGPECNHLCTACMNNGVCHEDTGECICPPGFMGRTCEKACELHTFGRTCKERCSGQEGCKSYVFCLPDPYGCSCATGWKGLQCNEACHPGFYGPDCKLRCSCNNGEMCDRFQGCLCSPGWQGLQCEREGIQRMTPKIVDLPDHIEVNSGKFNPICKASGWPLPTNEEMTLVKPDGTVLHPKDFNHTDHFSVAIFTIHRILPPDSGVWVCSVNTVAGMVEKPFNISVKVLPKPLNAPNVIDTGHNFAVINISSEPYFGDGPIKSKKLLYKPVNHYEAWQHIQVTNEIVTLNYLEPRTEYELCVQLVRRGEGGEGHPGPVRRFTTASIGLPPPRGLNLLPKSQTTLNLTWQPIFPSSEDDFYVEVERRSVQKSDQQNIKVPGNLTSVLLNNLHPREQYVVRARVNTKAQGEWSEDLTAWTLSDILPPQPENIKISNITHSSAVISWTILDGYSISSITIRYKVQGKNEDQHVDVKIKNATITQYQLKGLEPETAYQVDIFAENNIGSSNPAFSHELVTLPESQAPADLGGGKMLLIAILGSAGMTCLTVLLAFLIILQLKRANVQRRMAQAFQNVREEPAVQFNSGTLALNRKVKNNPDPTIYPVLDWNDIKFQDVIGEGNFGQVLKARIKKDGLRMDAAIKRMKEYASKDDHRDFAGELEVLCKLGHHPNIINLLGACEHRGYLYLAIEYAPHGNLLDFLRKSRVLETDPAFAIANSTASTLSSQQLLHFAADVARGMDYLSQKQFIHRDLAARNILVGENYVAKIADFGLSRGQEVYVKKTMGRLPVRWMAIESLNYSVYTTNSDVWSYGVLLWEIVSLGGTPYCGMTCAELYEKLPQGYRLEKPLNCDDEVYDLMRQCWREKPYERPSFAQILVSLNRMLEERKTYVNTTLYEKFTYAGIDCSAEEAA
Description: Inhibition of TEK (unknown origin) at 100 nM by Z-LYTE biochemical assay relative to control

SC4 [8] = experiment: Downregulation of CSF1R expression in mouse SC4 [Mouse schwannoma] cells by Western blotting analysis; format: functional, cell-based
[9] = target: T1, Serine/threonine-protein kinase PAK 4; details: dose 100.0 nM
Target sequence in this assay (O96013 whole entry, looked up, the tested form may be a part): as the sequence (O96013 whole entry, the tested form may be a part) above
Description: Inhibition of PAK4 (unknown origin) at 100 nM by Z-LYTE biochemical assay relative to control

SC4 [10] = experiment: Downregulation of TEK1 expression in mouse SC4 [Mouse schwannoma] cells by Western blotting analysis; format: functional, cell-based
SC4 [11] = experiment: Antitumor activity against Nf2 knockout mouse SC4 [Mouse schwannoma] cells harbouring pLuc-mCherry implanted in NOD/SCID mouse assessed as reduction in tumor growth at 100 mg/kg, po qd administered for 14 days by bioluminescence imaging analysis; format: functional, organism-based; details: time 14.0 day
SC4 [12] = experiment: Antitumor activity against Nf2 knockout mouse SC4 [Mouse schwannoma] cells harbouring pLuc-mCherry implanted in NOD/SCID mouse assessed as reduction in tumor weight at 100 mg/kg, po qd administered for 14 days; format: functional, organism-based; details: time 14.0 day
[13] = Induction of cell cycle arrest in mouse SC4 [Mouse schwannoma] cells assessed as accumulation of cells at G1 phase at 1 uM measured upto 96 hrs by propidium iodide staining based flow cytometeric analysis (reference value: 50%); format: functional
[14] = target: Macrophage colony-stimulating factor 1 receptor (Homo sapiens) (UniProt P07333); details: dose 100.0 nM
Description: Inhibition of CSF1R (unknown origin) at 100 nM by Z-LYTE biochemical assay relative to control

[15] = Inhibition of PAK1 V342F mutant (unknown origin) in presence of ATP by KinaseGlo assay
SC4 [16] = experiment: Induction of cell cycle arrest in mouse SC4 [Mouse schwannoma] cells assessed as accumulation of cells at sub-G1 phase at 1 uM measured upto 96 hrs by propidium iodide staining based flow cytometeric analysis; format: functional
[17] = Induction of cell cycle arrest in mouse SC4 [Mouse schwannoma] cells assessed as accumulation of cells at S phase at 1 uM measured upto 96 hrs by propidium iodide staining based flow cytometeric analysis (reference value: 27%); format: functional
[18] = target: Proto-oncogene tyrosine-protein kinase receptor Ret (Homo sapiens) (UniProt P07949); details: dose 100.0 nM
Sequence of Proto-oncogene tyrosine-protein kinase receptor Ret (Homo sapiens) (P07949 whole entry): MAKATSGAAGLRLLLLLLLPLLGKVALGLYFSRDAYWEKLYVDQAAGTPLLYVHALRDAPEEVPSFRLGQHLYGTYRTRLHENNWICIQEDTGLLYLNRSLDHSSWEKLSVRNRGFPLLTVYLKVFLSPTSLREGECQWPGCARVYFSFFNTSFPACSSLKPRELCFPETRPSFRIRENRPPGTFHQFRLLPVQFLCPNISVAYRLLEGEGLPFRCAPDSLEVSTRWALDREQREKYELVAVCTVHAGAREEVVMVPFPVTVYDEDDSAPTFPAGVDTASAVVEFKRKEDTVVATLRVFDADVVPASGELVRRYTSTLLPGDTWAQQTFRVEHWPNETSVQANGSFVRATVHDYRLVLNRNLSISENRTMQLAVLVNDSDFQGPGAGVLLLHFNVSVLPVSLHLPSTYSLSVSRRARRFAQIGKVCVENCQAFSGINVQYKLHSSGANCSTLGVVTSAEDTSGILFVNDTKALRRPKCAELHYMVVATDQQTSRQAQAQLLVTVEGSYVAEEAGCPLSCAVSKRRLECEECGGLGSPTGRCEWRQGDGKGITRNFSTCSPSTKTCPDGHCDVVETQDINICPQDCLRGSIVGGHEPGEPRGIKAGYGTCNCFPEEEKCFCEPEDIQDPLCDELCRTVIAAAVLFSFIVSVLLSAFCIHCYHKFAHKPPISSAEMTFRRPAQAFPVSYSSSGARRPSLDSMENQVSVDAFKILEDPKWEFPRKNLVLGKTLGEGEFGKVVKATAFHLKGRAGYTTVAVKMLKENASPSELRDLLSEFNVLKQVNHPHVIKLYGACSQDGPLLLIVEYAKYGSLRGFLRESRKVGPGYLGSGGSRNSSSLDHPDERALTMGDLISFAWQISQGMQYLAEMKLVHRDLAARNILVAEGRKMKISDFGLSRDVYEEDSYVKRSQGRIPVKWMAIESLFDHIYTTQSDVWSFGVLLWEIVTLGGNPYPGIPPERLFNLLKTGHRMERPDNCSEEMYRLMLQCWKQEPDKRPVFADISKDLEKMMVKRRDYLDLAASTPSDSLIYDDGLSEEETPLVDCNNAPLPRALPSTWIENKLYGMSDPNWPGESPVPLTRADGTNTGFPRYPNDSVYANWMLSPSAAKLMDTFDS
Description: Inhibition of RET (unknown origin) at 100 nM by Z-LYTE biochemical assay relative to control

SC4 [19] = experiment: Downregulation of YES1 expression in mouse SC4 [Mouse schwannoma] cells by Western blotting analysis; format: functional, cell-based
SC4 [20] = experiment: Downregulation of RET expression in mouse SC4 [Mouse schwannoma] cells by Western blotting analysis; format: functional, cell-based
[21] = target: Serine/threonine-protein kinase PAK 2 (Homo sapiens) (UniProt Q13177); details: dose 100.0 nM
Description: Inhibition of PAK2 (unknown origin) at 100 nM by Z-LYTE biochemical assay relative to control

[22] = target: Serine/threonine-protein kinase PAK 6 (Homo sapiens) (UniProt Q9NQU5); details: dose 100.0 nM
Description: Inhibition of PAK6 (unknown origin) at 100 nM by Z-LYTE biochemical assay relative to control

[23] = Induction of cell cycle arrest in mouse SC4 [Mouse schwannoma] cells assessed as accumulation of cells at G2/M phase at 1 uM measured upto 96 hrs by propidium iodide staining based flow cytometeric analysis (reference value: 22%); format: functional
[24] = target: Serine/threonine-protein kinase PAK 1 (Mus musculus, UniProt O88643)
Sequence of Serine/threonine-protein kinase PAK 1 (Mus musculus, UniProt O88643) (O88643 whole entry): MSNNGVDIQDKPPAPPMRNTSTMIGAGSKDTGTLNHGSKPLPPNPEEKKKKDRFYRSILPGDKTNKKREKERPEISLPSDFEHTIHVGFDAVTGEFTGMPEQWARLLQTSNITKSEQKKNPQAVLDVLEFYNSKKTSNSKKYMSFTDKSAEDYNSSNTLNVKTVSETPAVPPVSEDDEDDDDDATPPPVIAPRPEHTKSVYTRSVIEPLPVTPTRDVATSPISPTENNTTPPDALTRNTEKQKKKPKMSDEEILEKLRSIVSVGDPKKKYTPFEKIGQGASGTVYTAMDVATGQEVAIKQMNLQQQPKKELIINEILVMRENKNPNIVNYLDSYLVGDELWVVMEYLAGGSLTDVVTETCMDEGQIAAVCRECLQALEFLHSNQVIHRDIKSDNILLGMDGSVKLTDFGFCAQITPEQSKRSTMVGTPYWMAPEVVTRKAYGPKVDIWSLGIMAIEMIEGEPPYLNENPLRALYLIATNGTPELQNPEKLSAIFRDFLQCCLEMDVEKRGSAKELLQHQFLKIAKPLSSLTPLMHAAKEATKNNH
Description: Inhibition of PAK1 in mouse SC4 [Mouse schwannoma] cells assessed as reduction in p-PAK1 at serine 144 residue at 1 to 5 uM incubated for 2 hrs by Western blotting analysis

CCn1c(=O)c(-c2ccc(Cl)cc2Cl)cc2cnc(Nc3ccc(N4CCN(C)CC4)cc3)nc21
IC50 [1]: 559 nM | IC50 [2]: 20 nM

CN1CCN(c2ccc(Nc3ncc4ccc(=O)n(C5CCCC5)c4n3)cc2)CC1
IC50 [1]: 580 nM | IC50 [2]: 483 nM

Cc1nc(Nc2n[nH]c3c2CN(C(=O)N[C@H](CN(C)C)c2ccccc2)C3(C)C)c2sccc2n1
Activity (SC4 [3]): Active

CCn1c(=O)c(-c2ccc(-c3cncs3)cc2Cl)cc2cnc(Nc3ccc(N4CCN(C)CC4)cc3)nc21.Cl
inhibition [4]: 87% | IC50 [5]: > 2000 nM | inhibition [6]: 8% | inhibition [7]: 87% | Activity (SC4 [8]): Active | inhibition [9]: 0% | Activity (SC4 [10]): Active | Activity (SC4 [11]): Active | Activity (SC4 [12]): Active | Activity [13]: 74% | inhibition [14]: 91% | IC50 [15]: > 3000 nM | Activity (SC4 [16]): inactive | Activity [17]: 12% | inhibition [18]: 82% | Activity (SC4 [19]): Active | IC50 [1]: > 10000 nM | Activity (SC4 [20]): Active | inhibition [21]: 93% | inhibition [22]: 23% | Activity (SC4 [3]): Active | Activity [23]: 11% | IC50 [24]: 70 nM
